{"source": "patent US12016843B2", "about": "“Compositions and methods for the treatment of amyotrophic lateral sclerosis, parkinson's disease, parkinson's disease with dementia, dementia with lewy bodies, and multiple system atrophy” (priority 2019, dated 2024)", "key": {"[1]": {"test_system": "SOD1 G93A high copy transgenic mice", "experiment": "Forelimb grip strength test in SOD1 G93A mouse model of ALS", "format": "in vivo", "conditions": "10 weeks on drug; for grip strength Mean Diff. (Dunnett's multiple comparisons test, Vehicle vs. 0.5 mg/kg): 0.5 mg/kg daily ip; for grip strength Mean Diff. (Dunnett's multiple comparisons test, Vehicle vs. 5.0 mg/kg): 5.0 mg/kg daily ip", "method": "Study Design. Three experimental groups of n=20 (10 male, 10 female) SOD1 G93A high copy transgenic mice were dosed daily via intraperitoneal administration of vehicle control; (R)-2-amino-N—((S)-1-(((S)-5-amino-1-(3-benzyl-1,2,4-oxadiazol-5-yl)pentyl)amino)-3-(4-hydroxy-2,6-dimethylphenyl)-1-oxopropan-2-yl)-5-guanidinopentanamide (as its tris-HCl salt-(Ia)) at 0.5 mg/kg; or (R)-2-amino-N—((S)-1-(((S)-5-amino-1-(3-benzyl-1,2,4-oxadiazol-5-yl)pentyl)amino)-3-(4-hydroxy-2,6-dimethylphenyl)-1-oxopropan-2-yl)-5-guanidinopentanamide (as its tris-HCl salt—(Ia)) at 5.0 mg/kg. Animals were dosed beginning at 8 weeks of age and dosing was continued until humane end of life (defined by the inability of animal to right itself from either side within 30 seconds when placed on its side). Experimental endpoints and in-life collections and observations were as follows: • 1. Bodyweight measurement. Daily recording of weight. • 2. Neurological scoring. Weekly NeuroScore, a qualitative assessment of neurological disease progression based upon a five-point grading system. Scoring is defined as follows: • Score 0: Full extension of hind legs away from the lateral midline when the mouse is suspended by its tail, and the mouse can hold this extension for 2 seconds, being suspended 3 times consecutively. • Score 1: Collapse or partial collapse of the leg extension toward the lateral midline or trembling of hind legs during the tail suspension. • Score 2: Toes curl under at least twice during walking of 12 inches, or any part of the foot is dragging along the cage bottom or table. • Score 3: Rigid paralysis or minimal joint movement, the foot is not being used for forward motion. • Score 4: The mouse cannot right itself within 30 sec from either side. • 3. Grip strength test. Weekly forelimb grip strength, performed as follows: • a. Subjects are weighed and acclimated to the testing room for at least 60 min. • b. Equipment: Bioseb grip strength meter equipped with a grid for grasping that is suited for mice. • c. Mice are lowered towards the grid by their tails to allow for visual placing and for the mouse to grip the grid with their forepaws. • d. Subjects are firmly pulled horizontally away from the grid (parallel to the bench) for 3 consecutive trials with a brief (approximately 30 sec) rest period on the bench between trials. • e. The average force in grams of the 3 forepaw and 3 all-paws trials are analyzed with and without normalization to body weight. • 4. Retro-orbital blood collection. Bi-weekly retroorbital eye bleeds to determine drug exposure levels as well as levels of neurofilament light chain, a biomarker of axonal damage shown to correlate with ALS disease progression in human patients. Briefly, mice are sedated with isoflurane (5% induction, 2% maintenance) in O2. […]\nSystemic administration of (R)-2-amino-N—((S)-1-(((S)-5-amino-1-(3-benzyl-1,2,4-oxadiazol-5-yl)pentypamino)-3-(4-hydroxy-2,6-dimethylphenyl)-1-oxopropan-2-yl)-5-guanidinopentanamide attenuates decline in muscle strength in ALS mouse model. As shown in FIG. 2A and Table 1A, systemic administration of (R)-2-amino-N—((S)-1-(((S)-5-amino-1-(3-benzyl-1,2,4-oxadiazol-5-yl)pentyl)amino)-3-(4-hydroxy-2,6-dimethylphenyl)-1-oxopropan-2-yl)-5-guanidinopentanamide (as its tris-HCl salt—(Ia)) attenuates the loss of grip strength in male SOD1 G93A transgenic mice. Grip strength values were determined at baseline (week 8) and through end of life for each animal. […]"}, "[2]": {"experiment": "Drug levels in whole brain homogenate by LC-MS/MS after subcutaneous injection", "format": "in vivo", "conditions": "Sprague Dawley rats, 5 mg/kg subcutaneous, over 36 hours, compared with elamipretide", "method": "Sprague Dawley rats were injected subcutaneously with 5 mg/kg of Compound Ia or elamipretide (n=4 per time-point). Animals were sacrificed at the indicated timepoints and transcardial perfusion was performed. Drug levels in whole brain homogenate were determined by LC-MS/MS."}, "[3]": {"test_system": "corticospinal motor neurons derived from prp-TDP-43^A315T-UeGFP mouse model", "experiment": "Neurite length in primary corticospinal motor neurons from prp-TDP-43^A315T-UeGFP mice", "format": "cell-based", "conditions": "10 nM, 100 nM and 1000 nM, vs DMSO vehicle", "method": "Studies were performed in primary cells derived from the prp-TDP-43^A315T-UeGFP mouse model (Gautam, et al. Acta Neuropathol. 2019 January; 137(1): 47-69). Briefly, these mice express a pathogenic human TDP43 transgene which leads to severe structural alterations in the mitochondria, nucleus, and endoplasmic reticulum on the background of an eGFP reporter mouse. Both transgene (prp) and reporter (UCHL1) are driven by tissue specific promoter elements, leading to the generation of fluorescent green corticospinal motor neurons carrying the TDP43 mutation. Utilizing the endogenous fluorescence of the eGFP reporter, corticospinal motor neurons can be directly visualized in situ. Mixed cortical cultures were derived from the brains of prp-TDP-43^A315T-UeGFP mice and allowed to divide in serum free minimal medium for 3 cell divisions. Culture media +/− drug was removed and replenished daily. Doses of Compound Ia utilized in the experiment were 10 nM; 100 nM and 1000 nM. Drug was prepared in DMSO vehicle, and DMSO was used as vehicle control (<1% volume/volume). Cells were imaged using standard fluorescent microscopy techniques. Neurite length was calculated using automated imaging software (NIH Image J) on GFP expressing cells. Three independent biological replicates were performed, with a minimum of 10 motor neurons imaged per each replicate. […]"}, "[4]": {"test_system": "SOD1 G93A high copy transgenic mice", "experiment": "Neurological scoring (NeuroScore) in SOD1 G93A mouse model of ALS", "format": "in vivo", "conditions": "vs vehicle", "method": "(§1) Study Design. Three experimental groups of n=20 (10 male, 10 female) SOD1 G93A high copy transgenic mice were dosed daily via intraperitoneal administration of vehicle control; (R)-2-amino-N—((S)-1-(((S)-5-amino-1-(3-benzyl-1,2,4-oxadiazol-5-yl)pentyl)amino)-3-(4-hydroxy-2,6-dimethylphenyl)-1-oxopropan-2-yl)-5-guanidinopentanamide (as its tris-HCl salt-(Ia)) at 0.5 mg/kg; or (R)-2-amino-N—((S)-1-(((S)-5-amino-1-(3-benzyl-1,2,4-oxadiazol-5-yl)pentyl)amino)-3-(4-hydroxy-2,6-dimethylphenyl)-1-oxopropan-2-yl)-5-guanidinopentanamide (as its tris-HCl salt—(Ia)) at 5.0 mg/kg. Animals were dosed beginning at 8 weeks of age and dosing was continued until humane end of life (defined by the inability of animal to right itself from either side within 30 seconds when placed on its side). Experimental endpoints and in-life collections and observations were as follows: • 1. Bodyweight measurement. Daily recording of weight. • 2. Neurological scoring. Weekly NeuroScore, a qualitative assessment of neurological disease progression based upon a five-point grading system. […] The average force in grams of the 3 forepaw and 3 all-paws trials are analyzed with and without normalization to body weight. • 4. […]"}, "[5]": {"test_system": "SOD1 G93A high copy transgenic mice", "experiment": "Lifespan (survival to humane end of life) in SOD1 G93A mouse model of ALS", "format": "in vivo", "conditions": "vs vehicle control", "method": "as §1"}, "[6]": {"conditions": "female SOD1 G93A mice, daily intraperitoneal"}}}
{"smiles": "Cc1cc(O)cc(C)c1C[C@H](NC(=O)[C@H](N)CCCNC(=N)N)C(=O)N[C@@H](CCCCN)c1nc(Cc2ccccc2)no1.Cl.Cl.Cl", "note": "[Compound Ia, (R)-2-amino-N—((S)-1-(((S)-5-amino-1-(3-benzyl-1,2,4-oxadiazol-5-yl)pentyl)amino)-3-(4-hydroxy-2,6-dimethylphenyl)-1-oxopropan-2-yl)-5-guanidinopentanamide·3HCl]", "values": [{"measurement": "grip strength Mean Diff. (Dunnett's multiple comparisons test, Vehicle vs. 0.5 mg/kg)", "setting": "[1]; female SOD1 G93A mice", "result": "−6.081"}, {"measurement": "grip strength Mean Diff. (Dunnett's multiple comparisons test, Vehicle vs. 5.0 mg/kg)", "setting": "[1]; female SOD1 G93A mice", "result": "−7.905"}, {"measurement": "grip strength Mean Diff. (Dunnett's multiple comparisons test, Vehicle vs. 0.5 mg/kg)", "setting": "[1]; male SOD1 G93A mice", "result": "−0.7940"}, {"measurement": "grip strength Mean Diff. (Dunnett's multiple comparisons test, Vehicle vs. 5.0 mg/kg)", "setting": "[1]; male SOD1 G93A mice", "result": "−11.90"}, {"measurement": "loss of grip strength", "setting": "[1]; male SOD1 G93A mice, 5.0 mg/kg, p=0.08", "result": "trend in protection from loss of grip strength"}, {"measurement": "brain exposure (drug levels in whole brain homogenate)", "setting": "[2]", "result": "higher than that of elamipretide"}, {"measurement": "average neurite length per cell", "setting": "[3]", "result": "improved neurite length at all doses assessed"}, {"measurement": "progression of neurological symptom onset (five-point neurological score)", "setting": "[4]; [6]", "result": "no effects"}, {"measurement": "progression of neurological symptom onset (five-point neurological score)", "setting": "[4]; male SOD1 G93A mice, 5.0 mg/kg daily intraperitoneal from 8 weeks of age, two-way ANOVA", "result": "delayed the progression of neurological symptom onset"}, {"measurement": "lifespan", "setting": "[5]; [6]", "result": "no effects"}, {"measurement": "lifespan", "setting": "[5]; male SOD1 G93A mice, 5.0 mg/kg daily intraperitoneal", "result": "significantly increased"}]}
